Where a name gives a salt, the structure may show the parent alone.
Tests used:
Salmonella infantis = test: Effect of hydroxy acids on growth of Salmonella infantis in vitro (turbidity 600 nm); assay type: cell-based; details: MRS medium, 37° C., 20 hours; 0.03, 0.1 and 0.3% tested
Procedure: In this example, an investigation was carried out into the sensitivity of Salmonella infantis bacterium representing the genus Salmonella to two hydroxy acids: L-2-hydroxy-3-methyl butyric acid (HMB) and L-2-hydroxy-4-methyl valeric acid (HMV). The acids were added to the MRS growth medium of the bacterium so that resulting concentrations were controlled to 0.03, 0.1 and 0.3%. The organism growth was followed at 37° C. for 20 hours by measuring the turbidity of the culture at 600 nm wavelength.

[1] = test system: coliform bacterium strain (104); test: Effect of hydroxy acids on growth of coliform strain in vitro (turbidity 600 nm); assay type: cell-based; details: MRS medium, 37° C.; 0.03, 0.1 and 0.3% tested
Procedure: (§1) In the example, the sensitivity of microbes isolated from the small intestine of broiler chickens to hydroxy acids were measured under laboratory conditions. For the test, a representative test organism species from each of the bacterium groups mentioned above was chosen. Of the hydroxy acids, HMB (2-hydroxy-3-methyl butric acid) and HMV (2-hydroxy-4-methyl valeric acid) were separately tested using their a mixture of their L- and D-forms as well as the pure L-form. The acids were added to the MRS growth medium of the bacterium so that resulting concentrations were controlled to 0.03, 0.1 and 0.3%. The organism growth was followed at 37° C. by measuring the turbidity of the culture at 600 nm wavelength.

[2] = test system: Enterococcus strain (111); test: Effect of hydroxy acids on growth of Enterococcus strain in vitro (turbidity 600 nm); assay type: cell-based; details: MRS medium, 37° C.; 0.03, 0.1 and 0.3% tested
Procedure: as §1

physchem = details: for pH of maximum buffer capacity: mixture of the acid and a salt of said acid with a strong base
From the text: (§2) The acting mechanism of alpha-hydroxy acids on microbes is unclear. It is plausible that these acids act as antimetabolites of the corresponding alpha-amino acids. […] After their resorption into the organism, these acids are metabolized through the same paths as the corresponding alpha-amino acids.

micro-organisms = test: Antimicrobial effect of hydroxy acids on micro-organisms in vitro
in vivo = details: mouse
From the text: as §2

leucine amino peptidase = details: cited from earlier work

CC(C)[C@H](O)C(=O)O [HMB, L-2-hydroxy-3-methyl butyric acid]
hydroxy acid concentration clearly inhibiting growth (Salmonella infantis): 0.1%
hydroxy acid concentration effectively inhibiting growth [1]: 0.1%
growth-inhibiting effect [2]: clear growth-inhibiting effect

CC(C)CC(O)C(=O)O (racemic) [d,l-2-hydroxy-4-methyl valeric acid]
pKa (physchem): 3.8
pH of maximum buffer capacity (physchem): 3.8 pH
number of different micro-organisms on which an antimicrobial effect was shown (micro-organisms): about seventy

CC(C)C(O)C(=O)O (racemic) [Na-salt of d,l-2-hydroxy-3-methyl]
LD50 (in vivo; iv): 1080 mg/kg

CC(C)C[C@H](O)C(=O)O [HMV, L-2-hydroxy-4-methyl valeric acid]
hydroxy acid concentration clearly inhibiting growth (Salmonella infantis): 0.1%
hydroxy acid concentration effectively inhibiting growth [1]: 0.1%
growth-inhibiting effect [2]: clear growth-inhibiting effect

CC(C)CC(O)C(=O)O (racemic) [Na-salt of d,l-2-hydroxy-4-methyl]
LD50 (in vivo; in vivo): 650 mg/kg

CC(C)C(O)C(=O)O (racemic) [d,l-2-hydroxy-3-methyl butyric acid]
pKa (physchem): 3.8
pH of maximum buffer capacity (physchem): 3.8 pH
number of different micro-organisms on which an antimicrobial effect was shown (micro-organisms): about seventy

CC(C)CC(O)C(=O)O (stereo not drawn) [2-hydroxy-4-methyl valeric acid]
inhibition of leucine amino peptidase (leucine amino peptidase): competitive inhibitor

Source: patent publication US6203835A, “Use of hydroxy acid or a product containing the same in animal feed” (Oy Extracta Ltd., priority 1995, dated 2001)
